For test [1], the system named is human TLR2, TLR3, TLR4, TLR5, TLR7, TLR9, TLR10, Nod1 and Nod2. The test is described as follows: counter-screen in reporter cell lines specific for other human TLRs and Nods. The format is cell-based.
The subject of test [2] is human peripheral blood mononuclear cells. The format is cell-based. The settings on record: human PBMCs and whole human blood, Fig. 6.

Regarding `CCCCOc1cc2ccccc2nc1N` [Compound 6, 3-butoxyquinolin-2-amine], the specificity in counter-screens entry in test [1] is on record as “specific for human TLR8”.

Regarding `CCCCNc1cc2ccccc2nc1N` [Compound 9, N^3-butylquinoline-2,3-diamine], the specificity in counter-screens entry in test [1] was “specific for human TLR8”.

Turning to `CCCCSc1cc2ccccc2nc1N` [Compound 12, 3-(butylthio)quinolin-2-amine], the specificity in counter-screens entry in test [1] is on record as “specific for human TLR8”.

Consider `CCCCCc1cc2ccccc2nc1N` [Compound 14b, 3-pentylquinolin-2-amine], for which the cytokine/chemokine induction profile entry in test [2] was “induction of a specific set of chemokines and proinflammatory cytokines, including interleukins 12 and 18”.

Source of the values: paper PMC4105021 (ChemMedChem, 2014).
